Target: Human immunodeficiency virus type 1 protease (Human immunodeficiency virus 1, UniProt Q72874)
Assay: Inhibition of HIV-1 protease was determined in vitro

CC(C)(C)NC(=O)[C@@H]1C[C@@H]2CCCC[C@@H]2CN1C[C@@H](O)[C@H](Cc1ccccc1)NC(=O)[C@@H](NC(=O)c1ccc2ccccc2n1)[C@H]1CCOC1 [(3S,4aS,8aS)-N-tert-butyl-2-[(2R,3S)-2-hydroxy-3-[(2S)-2-[(3R)-oxolan-3-yl]-2-(quinolin-2-ylformamido)acetamido]-4-phenylbutyl]-decahydroisoquinoline-3-carboxamide]
IC50: 0.05 nM

— BindingDB's records for doi:10.1021/jm00002a012 (Merck Research Laboratories, 1995)
